Source: patent publication US7956074B2, “Aryl-isoxazolo-4-yl-oxadiazole derivatives” (Hoffman-La Roche Inc., priority 2005, dated 2011)

Target: T1, GABA A receptor α5β3γ2 (Homo sapiens, UniProt P18507+P31644)
T1 construct: expressed in transfected cells; host or cells: HEK293 cells, transiently transfected; membranes prepared
Test: [3H]flumazenil competition binding, human GABA A α5β3γ2
Conditions: competition for [3H]flumazenil (0.5 nM) binding, HEK293 cells expressing human (transiently transfected) α5β3γ2; means of two determinations; read-out: Ki[nM] hα5
Protocol: Membrane Preparation and Binding Assay
The affinity of compounds at GABA A receptor subtypes was measured by competition for [3H]flumazenil (85 Ci/mmol; Roche) binding to HEK293 cells expressing rat (stably transfected) or human (transiently transfected) receptors of composition
Cell pellets were suspended in Krebs-tris buffer (4.8 mM KCl, 1.2 mM CaCl2, 1.2 mM MgCl2, 120 mM NaCl, 15 mM Tris; pH 7.5; binding assay buffer), homogenized by polytron for ca. 20 sec on ice and centrifuged for 60 min at 4° C. (50000 g; Sorvall, rotor: SM24=20000 rpm). The cell pellets were resuspended in Krebs-tris buffer and homogenized by polytron for ca. 15 sec on ice. Protein was measured (Bradford method, Bio-Rad) and aliquots of 1 mL were prepared and stored at −80° C.
Assays were incubated to equilibrium for 1 hour at 4° C. and harvested onto GF/C uni-filters (Packard) by filtration using a Packard harvester and washing with ice-cold wash buffer (50 mM Tris; pH 7.5). After drying, filter-retained radioactivity was detected by liquid scintillation counting. Ki values were calculated using Excel-Fit (Microsoft) and are the means of two determinations.

Row | Molecule | Ki [nM]
1 | Cc1onc(-c2ccccc2)c1-c1nnc(-c2ccc(N3CCCCC3)cc2)o1 [Example 47, 1-{4-[5-(5-Methyl-3-phenyl-isoxazol-4-yl)-[1,3,4]oxadiazol-2-yl]-phenyl}-piperidine] | 46.9
2 | Cc1onc(-c2ccccc2)c1-c1nnc(-c2ccccc2N)o1 [Example 12, 2-[5-(5-Methyl-3-phenyl-isoxazol-4-yl)-[1,3,4]oxadiazol-2-yl]-phenylamine] | 106
3 | COc1cc(-n2ccnc2C)ccc1-c1nnc(-c2c(-c3ccccc3)noc2C)o1 [Example 58, 2-[2-Methoxy-4-(2-methyl-imidazol-1-yl)-phenyl]-5-(5-methyl-3-phenyl-isoxazol-4-yl)-[1,3,4]oxadiazole] | 13.9
4 | Cc1onc(-c2ccccc2)c1-c1nnc(-c2ccc3nn[nH]c3c2)o1 [Example 25, 6-[5-(5-Methyl-3-phenyl-isoxazol-4-yl)-[1,3,4]oxadiazol-2-yl]-1H-benzotriazole] | 30.9
5 | Cc1onc(-c2ccccc2)c1-c1nnc(-c2ccccn2)o1 [Example 9, 2-[5-(5-Methyl-3-phenyl-isoxazol-4-yl)-[1,3,4]oxadiazol-2-yl]-pyridine] | 286
6 | COc1cc(F)ccc1-c1nnc(-c2c(-c3ccccc3)noc2C)o1 [Example 24, 2-(4-Fluoro-2-methoxy-phenyl)-5-(5-methyl-3-phenyl-isoxazol-4-yl)-[1,3,4]oxadiazole] | 39.6
7 | Cc1onc(-c2ccccc2)c1-c1nnc(-c2ccnc(Cl)c2)o1 [Example 54, 2-Chloro-4-[5-(5-methyl-3-phenyl-isoxazol-4-yl)-[1,3,4]oxadiazol-2-yl]-pyridine] | 88.4
8 | COc1cc(N2CC[S+]([O-])CC2)ccc1-c1nnc(-c2c(-c3ccccc3)noc2C)o1 [Example 56, 4-{3-Methoxy-4-[5-(5-methyl-3-phenyl-isoxazol-4-yl)-[1,3,4]oxadiazol-2-yl]-phenyl}-thiomorpholine 1-oxide] | 2.2
9 | Cc1onc(-c2ccccc2)c1-c1nnc(-c2ccnc(N3CCOCC3)c2)o1 [Example 55, 4-{4-[5-(5-Methyl-3-phenyl-isoxazol-4-yl)-[1,3,4]oxadiazol-2-yl]-pyridin-2-yl}-morpholine] | 324
10 | COc1cc(N(C)C(=O)C2CC2)ccc1-c1nnc(-c2c(-c3ccccc3)noc2C)o1 [Example 17, Cyclopropanecarboxylic acid {3-methoxy-4-[5-(5-methyl-3-phenyl-isoxazol-4-yl)-[1,3,4]oxadiazol-2-yl]-phenyl}-methyl-amide] | 48.8
11 | Cc1onc(-c2ccccc2)c1-c1nnc(-c2ccc(OC(F)F)cc2)o1 [Example 52, 2-(4-Difluoromethoxy-phenyl)-5-(5-methyl-3-phenyl-isoxazol-4-yl)-[1,3,4]oxadiazole] | 58.9
12 | Cc1onc(-c2ccccc2)c1-c1nnc(-c2ccc(N3C[C@@H](C)O[C@@H](C)C3)cc2)o1 [Example 41, rac-(2S,6R)-2,6-Dimethyl-4-{4-[5-(5-methyl-3-phenyl-isoxazol-4-yl)-[1,3,4]oxadiazol-2-yl]-phenyl}-morpholine] | 32.5
13 | Cc1onc(-c2ccccc2)c1-c1nnc(-c2ccc(F)cc2)o1 [Example 36, 2-(4-Fluoro-phenyl)-5-(5-methyl-3-phenyl-isoxazol-4-yl)-[1,3,4]oxadiazole] | 134
14 | Cc1onc(-c2ccccc2)c1-c1nnc(-c2cccc(S(C)(=O)=O)c2)o1 [Example 31, 2-(3-Methanesulfonyl-phenyl)-5-(5-methyl-3-phenyl-isoxazol-4-yl)-[1,3,4]oxadiazole] | 199
15 | Cc1onc(-c2ccccc2)c1-c1nnc(-c2ccnc3ccccc23)o1 [Example 44, 4-[5-(5-Methyl-3-phenyl-isoxazol-4-yl)-[1,3,4]oxadiazol-2-yl]-quinoline] | 88.9
16 | Cc1onc(-c2ccccc2)c1-c1nnc(-c2ccc([N+](=O)[O-])cc2)o1 [Example 32, 5-(5-Methyl-3-phenyl-isoxazol-4-yl)-2-(4-nitro-phenyl)-[1,3,4]oxadiazole] | 240
17 | 2-(4,5-Difluoro-2-methoxy-phenyl)-5-(5-methyl-3-phenyl-isoxazol-4-yl)-[1,3,4]oxadiazole [Example 87] | 43.8
18 | COc1cc(NS(=O)(=O)c2cccs2)ccc1-c1nnc(-c2c(-c3ccccc3)noc2C)o1 [Example 62, Thiophene-2-sulfonic acid {3-methoxy-4-[5-(5-methyl-3-phenyl-isoxazol-4-yl)-[1,3,4]oxadiazol-2-yl]-phenyl}-amide] | 42.8
19 | COc1cc(N)ccc1-c1nnc(-c2c(-c3ccccc3)noc2CCC2CC2)o1 [Example 20, 4-{5-[5-(2-Cyclopropyl-ethyl)-3-phenyl-isoxazol-4-yl]-[1,3,4]oxadiazol-2-yl}-3-methoxy-phenylamine] | 20.5
20 | Cc1onc(-c2ccccc2)c1-c1nnc(-c2ccc(C(F)(F)F)cc2)o1 [Example 50, 2-(5-Methyl-3-phenyl-isoxazol-4-yl)-5-(4-trifluoromethyl-phenyl)-[1,3,4]oxadiazole] | 250

The remaining lines, values ahead:

Row | Ki [nM] | Molecule
21 | 4.8 | CCC(=O)Nc1ccc(-c2nnc(-c3c(-c4ccccc4)noc3C)o2)c(OC)c1 [Example 90, N-{3-Methoxy-4-[5-(5-methyl-3-phenyl-isoxazol-4-yl)-[1,3,4]oxadiazol-2-yl]-phenyl}-propionamide]
22 | 7.4 | COc1cc(N2CCOCC2)ccc1-c1nnc(-c2c(-c3ccccc3)noc2-n2cccn2)o1 [Example 113, 4-{3-Methoxy-4-[5-(3-phenyl-5-pyrazol-1-yl-isoxazol-4-yl)-[1,3,4]oxadiazol-2-yl]-phenyl}-morpholine]
23 | 11.9 | COc1cc(F)ccc1-c1nnc(-c2c(-c3ccccc3)noc2C2CC2)o1 [Example 73, 2-(5-Cyclopropyl-3-phenyl-isoxazol-4-yl)-5-(4-fluoro-2-methoxy-phenyl)-[1,3,4]oxadiazole]
24 | 131 | COc1cc(N2CCOCC2)ccc1-c1nnc(-c2c(-c3ccccc3)noc2C#N)o1 [Example 115, 4-[5-(2-Methoxy-4-morpholin-4-yl-phenyl)-[1,3,4]oxadiazol-2-yl]-3-phenyl-isoxazole-5-carbonitrile]
25 | 112 | COCc1onc(-c2ccccc2)c1-c1nnc(-c2ccc(F)cc2OC)o1 [Example 91, 2-(4-Fluoro-2-methoxy-phenyl)-5-(5-methoxymethyl-3-phenyl-isoxazol-4-yl)-[1,3,4]oxadiazole]
26 | 95.8 | COc1ccc(-c2nnc(-c3c(-c4ccccc4)noc3C)o2)c(Cl)n1 [Example 99, 2-Chloro-6-methoxy-3-[5-(5-methyl-3-phenyl-isoxazol-4-yl)-[1,3,4]oxadiazol-2-yl]-pyridine]
27 | 14.4 | COc1cc(N2CCOCC2)ccc1-c1nnc(-c2c(-c3ccsc3)noc2C)o1 [Example 123, 4-{3-Methoxy-4-[5-(5-methyl-3-thiophen-3-yl-isoxazol-4-yl)-[1,3,4]oxadiazol-2-yl]-phenyl}-morpholine]
28 | 12.8 | COc1cc(NCCN2CCNC2=O)c(F)cc1-c1nnc(-c2c(-c3ccccc3)noc2C)o1 [Example 133, 1-(2-{2-Fluoro-5-methoxy-4-[5-(5-methyl-3-phenyl-isoxazol-4-yl)-[1,3,4]oxadiazol-2-yl]-phenylamino}-ethyl)-imidazolidin-2-one]
29 | 24.5 | Cc1onc(-c2ccccc2)c1-c1nnc(-c2ccc(NCCO)nc2)o1 [Example 137, 2-{5-[5-(5-Methyl-3-phenyl-isoxazol-4-yl)-[1,3,4]oxadiazol-2-yl]-pyridin-2-ylamino}-ethanol]
30 | 3.7 | COc1cc(NC2CCOCC2)ccc1-c1nnc(-c2c(-c3ccccc3)noc2C2CC2)o1 [Example 82, {4-[5-(5-Cyclopropyl-3-phenyl-isoxazol-4-yl)-[1,3,4]oxadiazol-2-yl]-3-methoxy-phenyl}-(tetrahydro-pyran-4-yl)-amine]
31 | 4.2 | COc1cc(NCCN2CCCC2=O)c(F)cc1-c1nnc(-c2c(-c3ccccc3)noc2C)o1 [Example 128, 1-(2-{2-Fluoro-5-methoxy-4-[5-(5-methyl-3-phenyl-isoxazol-4-yl)-[1,3,4]oxadiazol-2-yl]-phenylamino}-ethyl)-pyrrolidin-2-one]
32 | 5.8 | COc1cc(NC=O)ccc1-c1nnc(-c2c(-c3ccccc3)noc2C)o1 [Example 134, N-{3-Methoxy-4-[5-(5-methyl-3-phenyl-isoxazol-4-yl)-[1,3,4]oxadiazol-2-yl]-phenyl}-formamide]
33 | 262 | Cc1onc(-c2ccccc2)c1-c1nnc(C2CCCCC2)o1 [Example 70, 2-Cyclohexyl-5-(5-methyl-3-phenyl-isoxazol-4-yl)-[1,3,4]oxadiazole]
34 | 14.5 | COc1cc(N2CCOCC2)ccc1-c1nnc(-c2c(-c3ccc(F)cc3)noc2C)o1 [Example 101, 4-(4-{5-[3-(4-Fluoro-phenyl)-5-methyl-isoxazol-4-yl]-[1,3,4]oxadiazol-2-yl}-3-methoxy-phenyl)-morpholine]
35 | 4.9 | CCNc1onc(-c2ccccc2)c1-c1nnc(-c2ccc(N3CCOCC3)cc2OC)o1 [Example 111, Ethyl-{4-[5-(2-methoxy-4-morpholin-4-yl-phenyl)-[1,3,4]oxadiazol-2-yl]-3-phenyl-isoxazol-5-yl}-amine]
36 | 12.1 | COc1cc(N2CCOCC2)ccc1-c1nnc(-c2c(-c3ccc(C)cc3)noc2C)o1 [Example 104, 4-(3-Methoxy-4-{5-[5-methyl-3-(4-methyl-phenyl)-isoxazol-4-yl]-[1,3,4]oxadiazol-2-yl}-phenyl)-morpholine]
